One experiment addresses T1, recombinant human KDM5B (Homo sapiens, UniProt Q9UGL1).
T1 sequence (Q9UGL1 374-755 limits assumed): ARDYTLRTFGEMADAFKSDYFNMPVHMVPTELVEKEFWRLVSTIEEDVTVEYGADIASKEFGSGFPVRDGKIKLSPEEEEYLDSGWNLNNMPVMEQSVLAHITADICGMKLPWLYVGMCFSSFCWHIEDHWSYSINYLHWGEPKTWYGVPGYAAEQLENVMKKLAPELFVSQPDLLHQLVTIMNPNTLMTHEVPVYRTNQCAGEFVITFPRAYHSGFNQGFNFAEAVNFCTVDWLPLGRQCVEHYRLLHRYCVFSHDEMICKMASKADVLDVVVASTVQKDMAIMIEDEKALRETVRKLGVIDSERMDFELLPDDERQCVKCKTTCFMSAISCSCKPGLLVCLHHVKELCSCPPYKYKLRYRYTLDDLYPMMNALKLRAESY
Put plainly: 14CO2 capture enzymatic assay (decarboxylation of [1-14C] αKG), KDM5B. Particulars: 10 μM [1-14C] αKG, 90 μM non-labeled αKG, 50 μM peptide substrate, 37° C., 1 hour, final 1% DMSO. The format is biochemical. The protocol: (§1) Enzymatic activity was determined based on the capture of ^14CO2 released by the decarboxylation of [1-^14C] αKG (Zhang et al., Anal. Biochem., 1998, vol. 271, pp. 137-142). [1-^14C]alphaketoglutarate (αKG) was from Perkin-Elmer, H3K4me3 and H3K9me3 peptides were from Mimotopes. All other reagents were from Sigma. Reaction mixtures included the following components: Fe(SO4), [1-^14C] αKG, non-labeled αKG, ascorbate, peptide-substrate (H3K4me3: H-ARTK(me3)QTARKSTGGKAPRKQLA-OH. H3K9me3: H-ARTKQTARK(me3)STGGKAPRKQLA-OH), NaCl, Tween-20 and catalase in 25 mM HEPES buffer, pH 7.4. The enzymatic reactions were initiated by addition of recombinant human KDM5B or KDM4A enzyme (truncated enzyme produced in house by method and using sequence disclosed in Ng et al, Nature 448:87-91, 2007). The reactions were performed in 96-well microtiter plates (20 μL total assay volume) (Greiner #650201). ^14CO2 was captured on a glass fiber filter paper (Cat. No. IH-201-A, Inotech Biosystems International) soaked with saturated Ba(OH)2 that was laid on top of the 96-well plate. A microtiter plate sealer film (Thermal Seal cat #T7961100) was applied to the filter paper. The plate and filter paper were sandwiched between two custom made aluminum plates (Advanced Component Manufacturing, Burlingame, CA) and transferred to a 37° C. oven and allowed to incubate for 1 hour. After incubation, the filter paper was dried in a 103° C. oven for 40-60 minutes. To determine percent turnover, aliquots of the reaction mixture were spotted onto the filter paper and the filter paper was dried again. The dry filter paper was exposed to a storage phosphor screen for 24-72 hours and the images recorded using a Typhoon FLA 7000 Imager (Amersham Biosciences, Piscataway, NJ). Integrated spot intensities corresponding to control reactions lacking the enzyme were subtracted from integration results for enzyme containing reactions and data were converted to enzyme dependent percent ^14CO2 release. All enzymatic reactions were run in duplicates.
(§2) For IC50 determination, a 3-fold dilution series of compound was prepared and added to the reaction mixture (final 1% DMSO, v/v) prior to enzyme addition. The final reagent concentrations were: 10 μM Fe(SO4), 10 μM [1-^14C] αKG, 90 μM non-labeled αKG, 2 mM ascorbate, 50 μM peptide substrate, 75 mM NaCl, 0.01% Tween-20 and ˜2 units/μL catalase. IC50s were determined by non-linear fitting using Grafit version 7.0.

The next experiment deals with T2, recombinant human KDM4A (Homo sapiens, UniProt O75164).
T2 construct: made in house
T2 sequence (O75164 1-359 limits assumed): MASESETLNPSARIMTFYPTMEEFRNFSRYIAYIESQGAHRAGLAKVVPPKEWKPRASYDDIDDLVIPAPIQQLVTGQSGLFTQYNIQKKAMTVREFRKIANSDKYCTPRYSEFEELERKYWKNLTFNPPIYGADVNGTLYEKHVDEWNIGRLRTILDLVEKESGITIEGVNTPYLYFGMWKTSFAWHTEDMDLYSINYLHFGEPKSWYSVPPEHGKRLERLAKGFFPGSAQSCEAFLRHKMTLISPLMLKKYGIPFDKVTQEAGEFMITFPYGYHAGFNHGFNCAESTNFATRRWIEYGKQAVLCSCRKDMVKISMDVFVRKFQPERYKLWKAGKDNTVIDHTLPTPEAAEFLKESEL
Briefly: 14CO2 capture enzymatic assay (decarboxylation of [1-14C] αKG), KDM4A. The format is biochemical. Particulars: 10 μM [1-14C] αKG, 90 μM non-labeled αKG, 50 μM peptide substrate, 37° C., 1 hour, final 1% DMSO. The protocol: as §1, §2

Each structure is given as a SMILES string.

The IC50 is the concentration that inhibits the measured activity by half. In the case of `N#Cc1cc(Cc2ccccc2F)nc(C(=O)CCC(=O)O)c1O` [Example 43, 4-[4-Cyano-6-(2-fluoro-benzyl)-3-hydroxy-pyridin-2-yl]-4-oxo-butyric acid], the concentration for half-maximal inhibition (IC50) on recombinant human KDM5B came to 0.15 µM; on recombinant human KDM4A, 37 µM.

With `COc1ccc(Oc2cc(C#N)c(O)c(C(=O)CCC(=O)O)c2)cc1` [Example 141, 4-[3-Cyano-2-hydroxy-5-(4-methoxy-phenoxy)-phenyl]-4-oxo-butyric acid], the IC50 was 0.25 µM on recombinant human KDM5B and more than 40 µM at recombinant human KDM4A.

As to `N#Cc1cc(-c2ccccc2F)nc(C(=O)CCC(=O)O)c1O` [Example 69, 4-[4-Cyano-6-(2-fluoro-phenyl)-3-hydroxy-pyridin-2-yl]-4-oxo-butyric acid], the figures for the half-maximal inhibitory concentration (IC50) on recombinant human KDM5B and at recombinant human KDM4A were 0.15 µM and more than 40 µM, respectively.

On to `Cc1cccc(Cl)c1Cc1cc(C#N)c(O)c(C(=O)CCC(=O)O)n1` [Example 123, 4-[6-(2-Chloro-6-methyl-benzyl)-4-cyano-3-hydroxy-pyridin-2-yl]-4-oxo-butyric acid], for which the IC50 at recombinant human KDM5B amounted to 0.12 µM; on recombinant human KDM4A, 3 µM.

With `N#Cc1cc(Cc2cccc(C(F)(F)F)c2)nc(C(=O)CCC(=O)O)c1O` [Example 29, 4-[4-Cyano-3-hydroxy-6-(3-trifluoromethyl-benzyl)-pyridin-2-yl]-4-oxo-butyric acid], the IC50 is 0.46 µM on recombinant human KDM5B and more than 40 µM on recombinant human KDM4A.

Take `N#Cc1cc(-c2cccc3cccnc23)nc(C(=O)CCC(=O)O)c1O` [Example 116, 4-(4-Cyano-3-hydroxy-6-quinolin-8-yl-pyridin-2-yl)-4-oxo-butyric acid]: the IC50 was 0.1 µM on recombinant human KDM5B and more than 40 µM at recombinant human KDM4A.

As for `Cc1cccc(C)c1Cc1cc(C(=O)CCC(=O)O)c(O)c(C#N)n1` [Example 133, 4-[2-Cyano-6-(2,6-dimethyl-benzyl)-3-hydroxy-pyridin-4-yl]-4-oxo-butyric acid], the IC50 is 1.4 µM on recombinant human KDM5B and more than 40 µM at recombinant human KDM4A.

Consider `N#Cc1cc(CCc2ccccc2)cc(C(=O)CCC(=O)O)c1O` [Example 135, 4-(3-Cyano-2-hydroxy-5-phenethyl-phenyl)-4-oxo-butyric acid], for which the IC50 on recombinant human KDM5B was 0.37 µM; on recombinant human KDM4A it was more than 40 µM.

Take `N#Cc1cc(C#N)c(O)c(C(=O)CCC(=O)O)n1` [Example 3, 4-(4,6-Dicyano-3-hydroxy-pyridin-2-yl)-4-oxo-butyric acid]: the results for the half-maximal inhibitory concentration (IC50) at recombinant human KDM5B and on recombinant human KDM4A were 0.11 µM and 16 µM, respectively.

With `Cc1ccc(C#N)cc1-c1cc(C#N)c(O)c(C(=O)CCC(=O)O)n1` [Example 100, 4-[4-Cyano-6-(5-cyano-2-methyl-phenyl)-3-hydroxy-pyridin-2-yl]-4-oxo-butyric acid], the IC50 on recombinant human KDM5B is 0.43 µM; on recombinant human KDM4A it was more than 40 µM.

For `Cc1ccccc1Cc1cc(C#N)c(O)c(C(=O)CCC(=O)O)n1` [Example 36, 4-[4-Cyano-3-hydroxy-6-(2-methyl-benzyl)-pyridin-2-yl]-4-oxo-butyric acid], the IC50 at recombinant human KDM5B amounted to 0.07 µM; on recombinant human KDM4A, 3.7 µM.

As to `COc1ccc(Cc2cc(C#N)c(O)c(C(=O)CCC(=O)O)n2)cc1` [Example 27, 4-[4-Cyano-3-hydroxy-6-(4-methoxy-benzyl)-pyridin-2-yl]-4-oxo-butyric acid], the concentration for half-maximal inhibition (IC50) on recombinant human KDM5B was 0.55 µM; at recombinant human KDM4A, more than 40 µM.

`Cc1cc(F)ccc1-c1cc(C#N)c(O)c(C(=O)CCC(=O)O)n1` [Example 86, 4-[4-Cyano-6-(4-fluoro-2-methyl-phenyl)-3-hydroxy-pyridin-2-yl]-4-oxo-butyric acid]: the IC50 at recombinant human KDM5B was 0.45 µM; on recombinant human KDM4A, more than 40 µM.

As for `N#Cc1cc(Cc2ccccc2)nc(C(=O)CCC(=O)O)c1O` [Example 10, 4-(6-Benzyl-4-cyano-3-hydroxy-pyridin-2-yl)-4-oxo-butyric acid], the figures for the IC50 on recombinant human KDM5B and on recombinant human KDM4A were 0.16 µM and more than 40 µM, respectively.

As for `N#Cc1cc(-c2cccc(Cl)c2)cc(C(=O)CCC(=O)O)c1O` [Example 120, 4-(3′-Chloro-5-cyano-4-hydroxy-biphenyl-3-yl)-4-oxo-butyric acid], the half-maximal inhibitory concentration (IC50) is 0.15 µM at recombinant human KDM5B and more than 40 µM at recombinant human KDM4A.

`N#Cc1nc(-c2ccccc2)cc(C(=O)CCC(=O)O)c1O` [Example 157, 4-(2-Cyano-3-hydroxy-6-phenyl-pyridin-4-yl)-4-oxo-butyric acid]: the IC50 at recombinant human KDM5B is 1.4 µM; at recombinant human KDM4A, more than 40 µM.

Take `Cc1ccccc1-c1cc(C#N)c(O)c(C(=O)CCC(=O)O)n1` [Example 71, 4-(4-Cyano-3-hydroxy-6-o-tolyl-pyridin-2-yl)-4-oxo-butyric acid]: the values for the 50% inhibitory concentration (IC50) at recombinant human KDM5B and on recombinant human KDM4A were 0.31 µM and more than 40 µM, respectively.

In the case of `N#Cc1cc(Cc2c(F)cccc2C(F)(F)F)nc(C(=O)CCC(=O)O)c1O` [Example 60, 4-[6-(2-Fluoro-6-trifluoromethyl-benzyl)-4-cyano-3-hydroxy-pyridin-2-yl]-4-oxo-butyric acid], the concentration for half-maximal inhibition (IC50) at recombinant human KDM5B is 0.33 µM; on recombinant human KDM4A, more than 40 µM.

For `N#Cc1cc(Cc2c(Cl)cc(F)cc2Cl)nc(C(=O)CCC(=O)O)c1O` [Example 126, 4-[4-Cyano-6-(2,6-dichloro-4-fluoro-benzyl)-3-hydroxy-pyridin-2-yl]-4-oxo-butyric acid], the values for the IC50 on recombinant human KDM5B and on recombinant human KDM4A were 0.07 µM and 2.9 µM, respectively.

On to `Cc1noc(C)c1Cc1cc(C#N)c(O)c(C(=O)CCC(=O)O)n1` [Example 154, 4-[4-Cyano-6-(3,5-dimethyl-isoxazol-4-ylmethyl)-3-hydroxy-pyridin-2-yl]-4-oxo-butyric acid], for which the half-maximal inhibitory concentration (IC50) on recombinant human KDM5B was 0.26 µM; at recombinant human KDM4A, 1.4 µM.

Consider `Cc1cc(C#N)cc(C)c1Cc1cc(C#N)c(O)c(C(=O)CCC(=O)O)n1` [Example 153, 4-[4-Cyano-6-(4-cyano-2,6-dimethyl-benzyl)-3-hydroxy-pyridin-2-yl]-4-oxo-butyric acid], for which the IC50 came to 0.32 µM at recombinant human KDM5B and 17 µM at recombinant human KDM4A.

Take `N#Cc1cc(Cc2ccc(Cl)cc2Cl)nc(C(=O)CCC(=O)O)c1O` [Example 64, 4-[4-Cyano-6-(2,4-dichloro-benzyl)-3-hydroxy-pyridin-2-yl]-4-oxo-butyric acid]: the IC50 on recombinant human KDM5B was 0.26 µM; on recombinant human KDM4A, more than 40 µM.

Turning to `N#Cc1cc(Cc2c(Cl)cccc2Cl)cc(C(=O)CCC(=O)O)c1O` [Example 121, 4-[3-Cyano-5-(2,6-dichloro-benzyl)-2-hydroxy-phenyl]-4-oxo-butyric acid], the 50% inhibitory concentration (IC50) is 0.08 µM at recombinant human KDM5B and more than 40 µM on recombinant human KDM4A.

For `N#Cc1cc(-c2cccc(C(F)(F)F)c2Cl)nc(C(=O)CCC(=O)O)c1O` [Example 103, 4-[6-(2-Chloro-3-trifluoromethyl-phenyl)-4-cyano-3-hydroxy-pyridin-2-yl]-4-oxo-butyric acid], the concentration for half-maximal inhibition (IC50) on recombinant human KDM5B is 0.38 µM; on recombinant human KDM4A, more than 40 µM.

`N#Cc1nc(Cc2ccccc2)cc(C(=O)CCC(=O)O)c1O` [Example 160, 4-(6-Benzyl-2-cyano-3-hydroxy-pyridin-4-yl)-4-oxo-butyric acid]: the concentration for half-maximal inhibition (IC50) on recombinant human KDM5B is 2 µM; at recombinant human KDM4A, more than 40 µM.

Take `N#Cc1cc(Cc2ccccc2OC(F)(F)F)nc(C(=O)CCC(=O)O)c1O` [Example 49, 4-[4-Cyano-3-hydroxy-6-(2-trifluoromethoxy-benzyl)-pyridin-2-yl]-4-oxo-butyric acid]: the IC50 is 0.27 µM at recombinant human KDM5B and more than 40 µM at recombinant human KDM4A.

Values taken from patent publication US20240002344A1, “COMPOUNDS, COMPOSITIONS AND METHODS FOR HISTONE LYSINE DEMETHYLASE INHIBITION” (FibroGen, Inc., priority 2020, published 2024).
